Results as given in patent publication US20220273605A1, “COMPOSITIONS AND METHODS FOR TREATMENT OF PRESBYOPIA” (priority 2019, published 2022).

System: rabbits
Assay: Effect on pupil diameter in rabbit animal model (change from baseline)
Format: in vivo
Conditions: for reduction from baseline pupil diameter: dose of 1.25% w/w
Experimental: Dose solutions with concentration range of 0.25% to 4% pilocarpine were prepared and dosed in rabbits. The effect on pupil diameter was measured and recorded as the change from baseline.
Dose solutions with concentration range of 0.03% to 3% carbachol were prepared and dosed in rabbits. The effect on pupil diameter was measured and recorded as the change from baseline. […] The expected efficacious range of carbachol resulting in the aforementioned pupil size reduction would correspond to approximately 0.1 to 1% w/w carbachol (FIG. 2).

C[N+](C)(C)CCOC(N)=O.[Cl-] [carbachol, carbamoylcholine chloride]
dose that most closely matches the optimum dose response measured for pilocarpine (20-30% pupil diameter reduction over 0.5 to 2 hours, about 10% up to 3 hours, tested 0.03% to 3%): approximately 0.6 % w/w

CC[C@@H]1C(=O)OC[C@@H]1Cc1cncn1C [pilocarpine]
reduction from baseline pupil diameter (over 0.5 to 2 hours): 20-30% | reduction from baseline pupil diameter (up to 3 hours): approximately 10%
